# Source: article PMC10141580, “Cyclic Dichalcogenides Extend the Reach of Bioreductive Prodrugs to Harness Thiol/Disulfide Oxidoreductases: Applications to seco-Duocarmycins Targeting the Thioredoxin System” (ACS Central Science, 2023)
# Where two headings read alike, the source gives them in different places.
# Assays:
# [1] = system: NCI-60 standardized human tumor cell line panel; experiment: cells; assay type: cell-based; settings: AZI sheet, read-out: GI50
# A549 cells = experiment: Resazurin cytotoxicity assay, A549, 72 h; settings: read-out: IC50(nM): A549
# Experimental: (§1) We used A549 lung cancer and HeLa cervical cancer cell lines for initial screening of the prodrugs.
# Fi gure S9: Cell ular resazurin-based cytotoxi ci ty as s a y.
# Dose -response curves were calculated from at least 27 incremental single concentrations over a range
# of at least three log units. Individual experiments with annotated experiment numbers are shown for each prodrug
# HeLa-HRE cells = experiment: Resazurin cytotoxicity assay, HeLa-HRE, 48 h; settings: for IC50(HeLa)/IC50(A549): ratio HeLa vs A549; for IC50: read-out: IC50(nM): HeLa, HeLa, 48 h
# Experimental: as §1
# HeLa-HRE cells were treated with prodrugs of the
# Dose -response curves were calculated from at least 27 incremental single concentrations over a
# range of at least three log units.
# [2] = Cell-free HPLC reduction assay (GSH or TCEP challenge); settings: 5 mM GSH (50 equiv), 24 h
# Text: These performance features had not been tested with naphthols, so we used HPLC to test them and show their reduction-based activation sequence (Figure 2c and Figures S4–S6).
# In brief, treatment with the quantitative reductant TCEP triggered a reaction cascade matching the activation sequence we expected (Figure 2c): dichalcogenides are reduced to dichalcogenols that cyclize, giving the naphthol cargos (plus thiol trigger byproduct) that evolve to the activated cyclopropanes (Figure 5).
# The mobile phase consists of eluent A: water (analytical
# grade, 0.1% formic acid) and eluent B: MeCN (analytical grade, 0.1% formic acid).
# using a gradient of 10% B t o 90% B over 10 min.
# Reduction assay using TCEP and GSH
# tris(2-carboxyethyl)phospine) (TCEP, 5 mM in TE-bu f f e r ) , or reduced glut at hione (GSH, 50 mM in TE-buf f er) or
# else blank TE-buffer. Final concentrations: Prodrug (0.1 mM) , TCEP ( 0. 5 mM) , G SH ( 5 mM). The blank sample
# was measured after 10 min (“pure”) and 24 h (“O H-“) to control for basic hydrolysis. The GSH sample was
# measured after 24 h to control for monothiol-based reductive release. The TCEP sample was measured at several […]
# extracted for each of the intermediate species and final r elease products. Peak areas were calculated relative to
# the sum of all peak areas at 320 nm to quantify individual species at each timepoints. […]
# mouse = experiment: Tolerability for repeated dose administration in vivo (summary); settings: for remarks: repeated dose administration
# Balb/c mice = experiment: Moderate repeated dosing tolerability study; assay type: in vivo
# Experimental: Next, a moderate repeated dosing study in Balb/c mice (3 animals per group) tested the importance of solubilizing the prodrugs.
# Methods for in vivo animal studies
# All in vivo studies were conducted as contract research together with React ionBiology Eur ope G mbH (Freiburg,
# Germany), EPO – Experimental Pharmacology & Oncology GmbH (Berlin, Germany); Bient a/ Enam ine Lt d. (Kyiv,
# Ukraine) and Leit at – Managing Technologies (Barcelona, Spain), adhering to the respective animal welfare
# Mice were kept in individually ventilated cages at constant temperature (22±2 °C, air-conditioned) and humidity (45
# – 65%), under optimum hygienic conditions with 10 – 15 air changes per hour. A cycle of 12 h artificial fluorescent
# light ning and 12 h darkness was applied , and animal behavior was monitored daily throughout the studies. The
# animals received food and water ad libit um.
# To evaluate toxicity of selected compounds, dose level selection studies within dose range from 0.1 mg/kg to
# 10 mg/kg were performed by intravenous administration into Balb /c mice. Each dose for each tested compound
# was administered in one mouse.
# changes and clinical signs of gross toxicity three tim es per week for 21 consecutive days of post-dosing period.
# After the first week of observation without adverse events, two doses for each test compound were selected as
# tolerated. These two doses were tested in two additional mice for confirmation of toler ability. Additional animals
# consecutive days of post-dosing period. Toxicity of repeated administrations was tested wit h t hr ee repeat ed pr e-
# selected doses at a dosing interval of 7 days. Mortality, body weight changes, and clinical signs of gross toxicity
# were monitored after each drug administration and three times per week for 21 consecutive days after the first
# compound administration. Bleed ing with subsequent hematological tests, clinical chemistry parameters analysis
# (ALT, AST, ALP, LDH, creatine kinase, creatinine, urea, cholesterol, and triglycerides), and necropsy with
# macroscopic inspection were performed on the terminal day of the repeated dosing-regime.
# To test tolerability of selected compounds in vivo, female BALB/c mice were randomized by weight into seven
# groups of t hree animals.
smiles,measurement,setting,value
CN1CCN(C(=O)Oc2cc3c(c4ccccc24)C(CCl)CN3C(=O)c2cc3cc(OCCCN4CCC4)ccc3[nH]2)C2CSSCC21 (mixture of isomers) [Me-SS66C-CBI-AZI],GI50,[1]; 786-0,8.8 nM
same,GI50,[1]; A498,26 nM
same,GI50,[1]; A549/ATCC,5 nM
same,GI50,[1]; ACHN,2 nM
same,GI50,[1]; BT-549,54 nM
same,GI50,[1]; CAKI-1,8.2 nM
same,GI50,[1]; CCRF-CEM,18 nM
same,GI50,[1]; COLO 205,22 nM
same,GI50,[1]; DU-145,5.3 nM
same,GI50,[1]; EKVX,27 nM
same,GI50,[1]; HCC-2998,22 nM
same,GI50,[1]; HCT-15,11 nM
same,GI50,[1]; HCT-116,46 nM
same,GI50,[1]; HL-60(TB),29 nM
same,GI50,[1]; HOP-62,9.6 nM
same,GI50,[1]; HOP-92,53 nM
same,GI50,[1]; HT29,15 nM
same,GI50,[1]; IGROV1,6.6 nM
same,GI50,[1]; K-562,17 nM
same,GI50,[1]; KM12,90 nM
same,GI50,[1]; LOX IMVI,3.2 nM
same,GI50,[1]; M14,14 nM
same,GI50,[1]; MALME-3M,19 nM
same,GI50,[1]; MCF7,1.5 nM
same,GI50,[1]; MDA-MB-231,37.8 nM
same,GI50,[1]; MDA-MB-435,25 nM
same,GI50,[1]; MDA-MB-468,5.3 nM
same,GI50,[1]; MOLT-4,14 nM
same,GI50,[1]; NCI-H23,4.3 nM
same,GI50,[1]; NCI-H226,6.9 nM
same,GI50,[1]; NCI-H460,1.6 nM
same,GI50,[1]; NCI-H522,28 nM
same,GI50,[1]; OVCAR-3,51 nM
same,GI50,[1]; OVCAR-4,74 nM
same,GI50,[1]; OVCAR-5,23 nM
same,GI50,[1]; OVCAR-8,12 nM
same,GI50,[1]; PC-3,34 nM
same,GI50,[1]; RPMI-8226,35 nM
same,GI50,[1]; RXF 393,4.2 nM
same,GI50,[1]; SF-268,20 nM
same,GI50,[1]; SF-295,2.1 nM
same,GI50,[1]; SF-539,22 nM
same,GI50,[1]; SK-MEL-2,31 nM
same,GI50,[1]; SK-MEL-5,19 nM
same,GI50,[1]; SK-MEL-28,22 nM
same,GI50,[1]; SK-OV-3,30 nM
same,GI50,[1]; SN12C,12 nM
same,GI50,[1]; SNB-19,18 nM
same,GI50,[1]; SR,2.7 nM
same,GI50,[1]; SW-620,18 nM
same,GI50,[1]; T-47D,15 nM
same,GI50,[1]; TK-10,36 nM
same,GI50,[1]; U251,3.6 nM
same,GI50,[1]; UACC-62,4.2 nM
same,GI50,[1]; UACC-257,34 nM
same,GI50,[1]; UO-31,12 nM
same,IC50,A549 cells,12 nM
same,IC50(HeLa)/IC50(A549),HeLa-HRE cells,33
same,IC50,HeLa-HRE cells,400 nM
same,release/reduction on GSH challenge,[2],no disulfide reduction/prodrug release was indicated
CN1CCN(C(=O)CCN(C(=O)Oc2cc3c(c4ccccc24)[C@H](CCl)CN3C(=O)c2cc3cc(OCCCN4CCC4)ccc3[nH]2)[C@H]2CCSSC2)CC1 [P-SS60-CBI-AZI],GI50,[1]; 786-0,330 nM
same,GI50,[1]; A498,200 nM
same,GI50,[1]; A549/ATCC,110 nM
same,GI50,[1]; ACHN,130 nM
same,GI50,[1]; BT-549,1000 nM
same,GI50,[1]; CAKI-1,150 nM
same,GI50,[1]; CCRF-CEM,270 nM
same,GI50,[1]; COLO 205,430 nM
same,GI50,[1]; DU-145,170 nM
same,GI50,[1]; EKVX,350 nM
same,GI50,[1]; HCC-2998,150 nM
same,GI50,[1]; HCT-15,210 nM
same,GI50,[1]; HCT-116,230 nM
same,GI50,[1]; HL-60(TB),390 nM
same,GI50,[1]; HOP-62,150 nM
same,GI50,[1]; HOP-92,1000 nM
same,GI50,[1]; HT29,210 nM
same,GI50,[1]; IGROV1,540 nM
same,GI50,[1]; K-562,220 nM
same,GI50,[1]; KM12,310 nM
same,GI50,[1]; LOX IMVI,86 nM
same,GI50,[1]; M14,200 nM
same,GI50,[1]; MALME-3M,230 nM
same,GI50,[1]; MCF7,49 nM
same,GI50,[1]; MDA-MB-231,402 nM
same,GI50,[1]; MDA-MB-435,290 nM
same,GI50,[1]; MDA-MB-468,150 nM
same,GI50,[1]; MOLT-4,230 nM
same,GI50,[1]; NCI-H23,66 nM
same,GI50,[1]; NCI-H226,150 nM
same,GI50,[1]; NCI-H460,31 nM
same,GI50,[1]; NCI-H522,250 nM
same,GI50,[1]; OVCAR-3,430 nM
same,GI50,[1]; OVCAR-4,1400 nM
same,GI50,[1]; OVCAR-5,390 nM
same,GI50,[1]; OVCAR-8,140 nM
same,GI50,[1]; PC-3,378 nM
same,GI50,[1]; RPMI-8226,570 nM
same,GI50,[1]; RXF 393,190 nM
same,GI50,[1]; SF-268,280 nM
same,GI50,[1]; SF-295,110 nM
same,GI50,[1]; SF-539,330 nM
same,GI50,[1]; SK-MEL-2,340 nM
same,GI50,[1]; SK-MEL-5,150 nM
same,GI50,[1]; SK-MEL-28,210 nM
same,GI50,[1]; SK-OV-3,310 nM
same,GI50,[1]; SN12C,530 nM
same,GI50,[1]; SNB-19,270 nM
same,GI50,[1]; SR,66 nM
same,GI50,[1]; SW-620,130 nM
same,GI50,[1]; T-47D,570 nM
same,GI50,[1]; TK-10,1600 nM
same,GI50,[1]; U251,100 nM
same,GI50,[1]; UACC-62,110 nM
same,GI50,[1]; UACC-257,380 nM
same,GI50,[1]; UO-31,190 nM
same,remarks,mouse,well tolerated
same,well-tolerated dose,mouse; weekly or twice-weekly administration,3 mg/kg
same,IC50,A549 cells,100 nM
same,IC50(HeLa)/IC50(A549),HeLa-HRE cells,8.9
same,IC50,HeLa-HRE cells,890 nM
CN(C(=O)Oc1cc2c(c3ccccc13)[C@H](CCl)CN2C(=O)c1cc2cc(OCCCN3CCC3)ccc2[nH]1)[C@H]1CCS[Se]C1 [SeS60-CBI-AZI],outcome of repeated dosing at 3 mg/kg,Balb/c mice; once weekly,significant loss of body weight
same,outcome of repeated dosing at 1 mg/kg,Balb/c mice; treated twice a week,still caused adverse effects
same,remarks,mouse,adverse effects
same,IC50,A549 cells; Homo sapiens,60 nM
same,IC50,HeLa-HRE cells; Homo sapiens,49 nM
same,IC50(HeLa)/IC50(A549),HeLa-HRE cells,0.8
